Marks after values point to notes of the source that are not given here. One block for each compound: values may come before it.
Experiments:
[1] = test system: IL-4 mRNA; test: IL-4 mRNA in mouse lungs, ovalbumin sensitization and challenge (real-time PCR); assay type: in vivo; details: 100 mg/kg/d, compared with vehicle treated mice
Protocol: (§1) Lung tissues were collected from ovalbumin (Calbiochem) or vehicle (2% Cremophor/Bicarbonate) sensitized Balb/c mice (Charles River) with or without treatment of test compound (100 mg/kg/d, from day 0 to day 14). Total RNA samples were isolated by the Trizol method (Life Technologies, Grand Island, N.Y.) and quantitatively measured by UV spectrophotometer, as well as qualitatively examined by ethidum bromide stained gel electrophoresis. First strand cDNA templates were generated with oligo (dT) by Reverse Transcription Kit (Invitrogen, Carlsbad, Calif.). The initial amounts of mRNA of each samples were quantitatively determined by running a SYBR Green (Qiagen, Valencia, Calif.) based real-time PCR (programmed as: initial denaturation at 95° C. for 15 minutes, denaturation at 95° C. for 15 seconds, annealing and elongation at 51±1° C. for 1 minute for total 40 cycles) with a specific pair of primers (IDT Corporation, Coralville, Iowa) and control primers for GAPDH in iCycler IQ Optical System (Hercules, Calif.). The data were statistically analyzed by ANOVA and t-tests with multiple comparisons of means (n=5 and P<0.05 were considered significant).

[2] = test system: MCP-1; test: In Vitro MCP-1 Activity Assay; assay type: cell-based; details: Endothelial cell; human endothelial cells, TNF-α (1 ng/ml), approximately 16 hours; read-out: IC50 (amount of compound required to achieve a 50% reduction compared to control), MCP-1
Protocol: Cultured human endothelial cells were seeded in 96-well plates. On the following day cells were stimulated with TNF-α (1 ng/ml) in the presence or absence of compounds dissolved in DMSO. To establish a dose curve and an IC50, multiple concentrations in 2- to 5-fold increments were used. Cells were exposed to TNF-α and compounds for approximately 16 hours. The next day the cells were visually examined via light microscopy to score for visual signs of toxicity. Cell culture media, diluted 1:10, was analyzed by an MCP-1 immunoassay kit (R & D Systems). This assay is a sandwich immunoassay using immobilized anti-MCP-1 antibody in 96-well plate to capture secreted MCP-1 in cell culture media. Captured MCP-1 was subsequently detected with a horse radish peroxidase-conjugated anti-MCP-1 antibody for color development. Compound 3 expressed an IC50 values of >10(the amount of compound (μM) required to achieve a 50% reduction compared to control (cells stimulated with TNF-α only)).

[3] = test system: IgE; test: Serum IgE levels in ovalbumin sensitized Balb/c mice; assay type: in vivo, mouse; details: 100 mg/kg/d from day 0 to day 14, compared with vehicle treated mice
Protocol: Peripheral blood samples were collected from ovalbumin (Calbiochem) or vehicle (2% Cremophor/Bicarbonate) treated Balb/c mice (Charles River) with or without administration of test compound (100 mg/kg/d, from day 0 to day 14). Serum was obtained by centrifugation and transferred into Microtainer serum tubes and frozen at −80° C. Mouse IgE ELISA Quantitation Kit (Bethyl Laboratories, Inc. Montgomery, Tex. or PharMingen, San Diego, Calif.) was applied to measure the IgE levels of serum samples. Immuno-reactions were performed as Kit protocol with IgE standard and serum samples in duplicates. The results were read in a microplate reader (Bio-Rad Model 550) at 450 nm and the amounts of IgE were calculated according to the standard curve. The limit of detection in our experiments was 7 ng/ml. Compound 3 administrated at 100 mg/kg/d from day 0 to day 14, reduced serum IgE levels by 38% in ovalbumin sensitized Balb/c mice compared with vehicle treated mice.

[4] = test system: IFN-gamma mRNA; test: IFN-gamma mRNA in mouse lungs, ovalbumin sensitization and challenge (real-time PCR); assay type: in vivo; details: 100 mg/kg/d, compared with vehicle treated mice
Protocol: as §1

[5] = test system: IL-13 mRNA; test: IL-13 mRNA in mouse lungs, ovalbumin sensitization and challenge (real-time PCR); assay type: in vivo; details: 100 mg/kg/d, compared with vehicle treated mice
Protocol: as §1

[6] = test system: IL-1β; test: LPS-stimulated IL-1β secretion in human peripheral blood mononuclear cells; assay type: cell-based; details: PBMC; for Percent IL-1β Secreted: LPS (1–2 μg/ml) 3 hours
Protocol: Human peripheral blood mononuclear cells were treated with or without Compound 3 for 1 hour, then stimulated with LPS (1–2 μg/ml) for 3 hours. Condition media was collected and IL-1β measured using an ELISA kit. […] See Biological Table 4

[7] = test system: VCAM-1 mRNA; test: Lung VCAM-1 mRNA levels in LPS-challenged mice (quantitative RT-PCR); assay type: in vivo, mouse; details: subcutaneously 100 mg/kg/d, 2 hr prior to LPS injection (1 mg/kg), compared with vehicle controls
Protocol: (§2) Balb/C mice (6–8 weeks) were injected with LPS (1 mg/kg; 5 mls/kg) and sacrificed 2 hr later. Blood was collected for plasma TNF-α levels and lungs for measurement of VCAM-1 mRNA levels by quantitative RT-PCR. Compound 3 administered subcutaneously at a dose of 100 mg/kg/d, 2 hr prior to LPS injection, inhibited TNF-α production by 80% and VCAM-1 expression by 60% compared with vehicle controls.

[8] = test system: IL-2 mRNA; test: IL-2 mRNA in mouse lungs, ovalbumin sensitization and challenge (real-time PCR); assay type: in vivo; details: 100 mg/kg/d, compared with vehicle treated mice
Protocol: as §1

[9] = test system: TNF-α; test: Plasma TNF-α levels in LPS-challenged mice; assay type: in vivo, mouse; details: subcutaneously 100 mg/kg/d, 2 hr prior to LPS injection (1 mg/kg), compared with vehicle controls
Protocol: as §2

[10] = test system: Human Aortic Smooth Mucle Cells (HAoSMC); test: Smooth Muscle Cell Proliferation Protocol (3H-thymidine incorporation); assay type: cell-based; details: HAoSMC stimulated by 5% serum
Protocol: Human Aortic Smooth Mucle Cells (HAoSMC) were obtained from Clonetics, Inc. and were used below passage 10. Cells were seeded in 24-well plates. When cells were 80% confluent, they were made quiescent by adding media containing 0.2% serum (as compared to 5% serum in normal culture media) for 48 hours. The cells were, then, stimulated by 5% serum in the presence or absence of compounds dissolved in DMSO. […] Rapamycin (at 1 and 0.1 μM) was used as a positive control for the assay. After a 20 hour incubation with or without test compounds, 3H-thymidine (0.5 μCi/well) was added to the cells for 4 hours of labeling. Washed cells were then lysed in NaOH and the amount of 3H-thymidine incorporation was determined. Cytotoxicity of the drug was measured by use of the CytolTox 96 assay kit (Promega, Madison, Wis.).

[11] = test system: IL-5 mRNA; test: IL-5 mRNA in mouse lungs, ovalbumin sensitization and challenge (real-time PCR); assay type: in vivo; details: 100 mg/kg/d, compared with vehicle treated mice
Protocol: as §1

[12] = test system: rat adjuvant arthritis model; test: DMARD activity in rat adjuvant arthritis (bone erosion, splenomegaly); assay type: in vivo
Protocol: Male Lewis rats (150–175 g) from Charles River Laboratories were anesthetized on day 0 with 3–5% isoflurane anesthesia while the tail base was shaved and adjuvant mixture was injected. Fifty μL of adjuvant (10 mg/ml M. butyricum in mineral oil) was injected subcutaneously into two sites at the tail base. Paw swelling was monitored using a plethysmometer (UGO Basile), after shaving each leg to the level of the Achilles tendon to mark the level of immersion. A baseline paw measurement for both hindpaws was taken between d2-d5 and a second measurement was taken on day 7–8. Onset of paw swelling occurred rapidly between d9–11 and daily measurements were performed every weekday between d9 and day 15. Compounds of the invention and vehicles were dosed either prophylactically (d1–14), or therapeutically (d9–14) after swelling was confirmed. Solutions were injected subcutaneously or given orally by gavage 1–2 times per day. From day 0, rats were weighed every 2–3 days and overall health was monitored. Plasma drug levels, if desired, were measured in tail-vein derived blood samples taken on day 14. On day 15, blood samples were obtained by cardiac puncture, rats were euthanized with CO2, selected organs removed and both hindpaws were amputated and placed in 10% buffered formalin for histopathological analysis. See Biological Table 2. […]

[13] = test system: Male Lewis rats; test: Rheumatoid Arthritis Protocol (rat adjuvant arthritis, paw swelling); assay type: in vivo; details: sq, bid
Protocol: Male Lewis rats (150–175 g) from Charles River Laboratories were anesthetized on day 0 with 3–5% isoflurane anesthesia while the tail base was shaved and adjuvant mixture was injected. Fifty μL of adjuvant (10 mg/ml M. butyricum in mineral oil) was injected subcutaneously into two sites at the tail base. Paw swelling was monitored using a plethysmometer (UGO Basile), after shaving each leg to the level of the Achilles tendon to mark the level of immersion. A baseline paw measurement for both hindpaws was taken between d2-d5 and a second measurement was taken on day 7–8. Onset of paw swelling occurred rapidly between d9–11 and daily measurements were performed every weekday between d9 and day 15. Compounds of the invention and vehicles were dosed either prophylactically (d1–14), or therapeutically (d9–14) after swelling was confirmed. Solutions were injected subcutaneously or given orally by gavage 1–2 times per day. From day 0, rats were weighed every 2–3 days and overall health was monitored. Plasma drug levels, if desired, were measured in tail-vein derived blood samples taken on day 14. On day 15, blood samples were obtained by cardiac puncture, rats were euthanized with CO2, selected organs removed and both hindpaws were amputated and placed in 10% buffered formalin for histopathological analysis. See Biological Table 2.

[14] = test system: Balb/C mice; test: Asthma Protocol (ovalbumin sensitized and challenged mice, bronchoaveolar lavage); assay type: in vivo, mouse; details: sc, daily dosing at 100 mg/kg from day 0–13, lavage fluid
Protocol: Balb/C mice (6–8 weeks old) are sensitized to ovalbumin (ova) (8 ug ova absorbed in 3.3 mg Alum inject) on days 0 and 5. On day 12, the mice were aerosol challenged with 0.5% ovalbumin dissolved in sterile saline for 1 hr in the AM, and then again in the PM (at least 4 hr apart). On day 14, the mice were anesthetized with ketamine/xylazine/acepromazine cocktail, exsanguinated, and then euthanized. Following blood collection, bronchoaveolar lavage was performed on each animal. Total cell counts were conducted on the lavage fluid, which was subsequently diluted with cell media 1:1. Slides of the lavage fluid were made by spinning the samples with a cytospin centrifuge. Slides were airdried and stained with x. Cell differentials of the lavage fluid were completed at the conclusion of the study. All compounds except Example 2 were well tolerated with no body weight loss throughout the course of the study. Statistical analysis involved ANOVA and Tukey-Kramer post hoc tests. Compounds were administered except where noted by subcutaneous injection once daily from day 0–13. The formulations used contained various mixtures of the following excipients (pharmasolve, cremophor RH 40, tween 80, PEG 300). See Biological Table 3

[15] = test system: VCAM-1; test: In Vitro VCAM-1 Assay (TNF-α stimulated HAEC or HPAEC, cell ELISA); assay type: cell-based, human; details: Homo sapiens, 16 h, TNF-α (1 ng/ml) stimulated HAEC or HPAEC, approximately 16 hours
Method in brief: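 Primary human aortic or pulmonary endothelial cells (below passage 9) stimulated with TNF-α (1 ng/ml) plus compound (four concentrations, ≤0.25% DMSO) for about 16 h. Surface VCAM-1 detected by cell ELISA (HRP/TMB, OD 450 nm). IC50 taken as the concentration giving 50% inhibition of the TNF-α-only response.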

Structure (SMILES): COc1cc(OC)c(-c2cc3ccccc3s2)cc1/C=C/C(=O)c1ccc(C(=O)O)cc1 [Compound 3]
inhibition of ovalbumin induced IL-4 mRNA in the lung [1]: 68%
IC50 [2]: > 10 µM
reduction of serum IgE levels [3]: 38%
effect on IFN-gamma mRNA in the lung [4]: without significantly affecting
inhibition of ovalbumin induced IL-13 mRNA in the lung [5]: 82%
Percent IL-1β Secreted ([6]; 1.25 μM): >40%
Percent IL-1β Secreted ([6]; 2.5 μM): >10%
Percent IL-1β Secreted ([6]; 5 μM): >5%
Percent IL-1β Secreted ([6]; 10 μM): >1%
inhibition of LPS-stimulated IL-1β secretion ([6]; 1 hour pretreatment, LPS 3 hours): dose dependent inhibition
inhibition of VCAM-1 expression (lung mRNA) [7]: 60%
effect on IL-2 mRNA in the lung [8]: without significantly affecting
inhibition of TNF-α production (plasma) [9]: 80%
IC50 [10]: 0.5 µM
inhibition of ovalbumin induced IL-5 mRNA in the lung [11]: 98%
splenomegaly ([12]; prophylactically, 100, 50 and 25 mg/kg/d, b.i.d., s.c.): inhibit splenomegaly
bone erosion in the ankle joint by histopathological analysis ([12]; twice daily subcutaneous doses of 60, 40 and 20 mg/kg/d, prophylactically): inhibit bone erosion

Structure (SMILES): COc1cc(OC)c(-c2cccs2)cc1/C=C/C(=O)c1ccc(C(=O)O)cc1 [Example 6, 4-[3E-(2,4-Dimethoxy-5-thiophen-2-yl-phenyl)-acryloyl]-benzoic acid]
% Inhibition ([13]; 60 mg/Kg/day, d1–14): 77%
% Inhibition [14]: 81%
IC50 [15]: < 1 µM
melting point: 213 to 216 °C

Structure (SMILES): COc1cc(OC)c(-c2cc3ccccc3s2)cc1/C=C/C(=O)c1ccc(C(=O)O)cc1 [Example 3, 4-[3E-(5-Benzo[b]thien-2-yl-2,4-dimethoxyphenyl)-acryloyl]-benzoic acid]
% Inhibition ([13]; 60 mg/Kg/day, d1–14): 96%
% Inhibition [14]: 79%

Continued, in another order:

IC50 [15]: < 1 µM
melting point: 255 °C (dec.)
Structure (SMILES): COc1cc(OCCN2CCOCC2)c(/C=C/C(=O)c2ccc(C(=O)O)cc2)cc1-c1cccs1.Cl [Example 60, 4-{3E-[4-Methoxy-2-(2-morpholin-4-yl-ethoxy)-5-thiophen-2-yl-phenyl]-acryloyl}-benzoic acid, hydrochloride]
% Inhibition ([13]; 75 mg/kg/day, dl–14): 62* %
% Inhibition [14]: 36%

IC50 [15]: < 1 µM
Structure (SMILES): COCCOCCOc1cc(OC)c(-c2cccs2)cc1/C=C/C(=O)c1ccc(C(=O)O)cc1 [Example 29, 4-(3E-{4-Methoxy-2-[2-(2-methoxyethoxy)ethoxy]-5-thiophen-2-yl-phenyl}-acryloyl)-benzoic Acid]
% Inhibition ([13]; 60 mg/Kg/day, d1–14): 82%
% Inhibition [14]: 24%

From US7094801B2, “Chalcone derivatives and their use to treat diseases” (Atherogenics, Inc., priority 2001, dated 2006)
